From patent US12655120B2, “GPR52 modulator compounds” (NXERA PHARMA UK LIMITED, priority 2020, dated 2026) come the findings set out here.

Data set [1] concerns the target T1, human GPR52 (Homo sapiens, UniProt Q9Y2T5).
T1 construct: expressed in transfected cells; host or cells: HEKf suspension cells infected with BacMam virus
As to the kind of experiment: GPR52 Agonist Functional cAMP Assay. It is filed as cell-based. The conditions noted are these: normalised to DMSO (0%) and maximal compound 7m (J. Med. Chem., 2014, 57, 5226) response (100%). The procedure:
HEKf suspension cells were infected for 24 h with 0.1% v/v human GPR52 expressing BacMam virus, a modified baculovirus designed for mammalian gene expression. Following BacMam infection, cells were pelleted by centrifugation (335 g, 5 min), resuspended in cell freezing medium (Sigma) and frozen at −150° C. until required. On experiment day, 25 nL GPR52 compound dilutions, prepared in DMSO, were stamped onto proxiplates (PerkinElmer) by a LabCyte ECHO acoustic dispenser. Frozen cells were thawed and resuspended in assay stimulation buffer (Cisbio) containing 0.5 mM 3-iso-butyl-1-methylxanthine (IBMX, Sigma) to achieve a density of 2000 cells per well. 10 μl cells were added to assay plates using a Multidrop Combi Reagent Dispenser (ThermoFisher) before centrifugation (335 g, 1 min). Cells were incubated with compounds at 37° C. for 30 min prior to addition of cAMP detection reagents (HiRange cAMP kit, Cisbio) which were prepared according to the manufacturer's instructions. Plates were shaken for 1 h at room temperature before reading on a PHERAstar FS plate reader (BMG Labtech) using standard HTRF settings. HTRF ratios were obtained by dividing the acceptor emissions (665 nm) by the donor emissions (620 nm) and multiplying by 10,000.

The nature of data set [2]: Pharmacokinetic profiling in male Sprague-Dawley rats (IV and PO). The format is in vivo. The conditions noted are these: plasma, Rat PO, 3 mg/kg, n = 3, mean ± standard deviation. How it is done:
The pharmacokinetic profiles of Example 39 were assessed in male Sprague-Dawley rats via intravenous (IV) and oral (per os, PO) routes of delivery. Pharmacokinetic data (mean values ±standard deviation) for Example 39 of the invention are detailed in Table 5.
Methods: For pharmacokinetic analysis, groups of three male Sprague-Dawley rats, ranging in weight between 200 and 230 g, were administered a single dose of Example 39 via IV or PO route, using the doses, dose volumes and vehicles specified in Table 5. Following dosing, blood samples were taken at several time points (pre-dose, 2 min, 5 min, 15 min, 30 min, 1 h, 3 h, 6 h, 12 h and 24 h for IV administration and pre-dose, 5 min, 15 min, 30 min, 1 hr, 2 h, 4 h, 8 h, 12 h and 24 h for PO administration) via serial tail vein bleeds, and centrifuged to separate plasma for analysis by LC-MS/MS. WinNonlin v8.2 statistics software (Pharsight Corporation, California, USA) was used to generate pharmacokinetic parameters using non-compartmental analysis.

In data set [3] the test system is caffeine-induced hyperlocomotor activity. The data set can be described thus: Caffeine-induced locomotor activity in rat. It is filed as in vivo, male Sprague-Dawley rats. The following applies: 0.1, 0.3, 1 and 3 mg/kg PO, 60 min before caffeine 15 mg/kg s.c.; statistical significance at 1 and 3 mg/kg. From the text: Caffeine, a non-selective adenosine receptor antagonist, is a psychostimulant which increases rodent locomotor activity principally via blockade of A2A receptors (Br. J. Pharmacol., 2000, 129, 1465). These receptors are densely expressed on the terminals of GABAergic striatopallidal neurons in the indirect pathway of the basal ganglia, in which dopamine D2 receptors are co-expressed (J. Comp. Neurol., 1998, 401, 163; J. Comp. Neurol., 2001, 431, 331). Tonic activation of A2A receptors decreases the affinity of D2 receptors to dopamine and antagonism of A2A receptors facilitates dopaminergic signalling (Curr. Pharm. Des., 2008, 14, 1468). […] Male Sprague-Dawley rats (200-250 g) were housed in groups with a 12 h light/dark cycle (lights on at 07.00), at an ambient temperature of 21±2° C. and with standard pelleted diet and water adlibitum. Testing was carried out in the light phase. On the day of the experiment, animals were habituated to the locomotor cages for a 60-minute period. Subsequently, they were dosed with vehicle or Example 39 (0.1, 0.3, 1 and 3 mg/kg) by the oral route and returned to the appropriate locomotor cage. Example 39 was formulated in a vehicle of 10% DMAC, 10% solutol (Kolliphor HS15) and 80% water (v/v/v). […] Locomotor activity was assessed for a 2 h period after caffeine treatment. […] SEMs were calculated from the residuals of the statistical model. […]

T1 sequence (Q9Y2T5 whole entry): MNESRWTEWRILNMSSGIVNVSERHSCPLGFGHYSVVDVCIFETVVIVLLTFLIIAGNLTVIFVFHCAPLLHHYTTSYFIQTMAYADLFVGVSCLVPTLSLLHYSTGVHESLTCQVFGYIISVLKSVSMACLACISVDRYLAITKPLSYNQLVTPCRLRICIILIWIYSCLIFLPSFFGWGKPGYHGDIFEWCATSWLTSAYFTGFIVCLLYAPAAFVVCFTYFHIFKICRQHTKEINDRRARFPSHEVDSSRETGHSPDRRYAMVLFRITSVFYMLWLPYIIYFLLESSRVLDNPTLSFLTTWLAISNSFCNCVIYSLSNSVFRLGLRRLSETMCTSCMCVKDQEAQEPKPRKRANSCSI

`Cc1nn(-c2cc(Cc3cc(F)cc(C(F)(F)F)c3)ccn2)c(CO)c1C(N)=O` [Example 39, 1-(4-(3-fluoro-5-(trifluoromethyl)benzyl)pyridin-2-yl)-5-(hydroxymethyl)-3-methyl-1H-pyrazole-4-carboxamide]: the Emax in data set [1] came to 101%. For the same molecule, the bioavailability in data set [2] came out at 77.4 ± 14.9%. Besides, the “effect on caffeine-induced hyperlocomotor response” value in data set [3] is recorded as “dose-dependent reduction”.

For orientation: Emax means the size of the effect at its maximum, as opposed to the concentration needed. What is called bioavailability is dose-corrected exposure relative to a reference, in per cent. A low value points to little systemic uptake.
